Assay results published in PMC5524647 (Nature Communications, 2017).
“Also recorded” adds a separate entry of the source.

Key:
mAb 4C7 [1] = type: binding, mouse; conditions: for Kd: read-out: K D of mAb 4C7 binding
mAb 4C7 [2] = type: binding, mouse
mAb 3D11 = type: binding, mouse
mAb 9C1-2 = type: binding, mouse
mAb 4C7 [3] = type: binding, mouse; remark: listed apart in the source
mAb Pp-PS-W = type: binding, mouse
[4] = system: serum samples from culture-confirmed Thai melioidosis patients; type: binding, human

CC(=O)OC1C(OC2C(O)C(CO)OC(OCCCCCNC(=O)CCCCCNC(=O)CCCCC3SCC4NC(=O)NC43)C2O)OC(C)C(O)C1OC1OC(CO)C(O)C(O)C1O (stereo not shown) [BIO-2]
K D of mAb 4C7 binding (mAb 4C7 [1]): no binding | binding of mAb 4C7 according to sensorgrams (mAb 4C7 [1]): did not interact

COC1C(O)C(C)OC(OC2C(O)C(CO)OC(OCCCCCNC(=O)CCCCCNC(=O)CCCCC3SCC4NC(=O)NC43)C2O)C1OC(C)=O (stereo not shown) [BIO-6]
binding of mAb 4C7 according to sensorgrams (mAb 4C7 [1]): bound | Kd (mAb 4C7 [1]): 22 nM

COC1C(OC(C)=O)C(C)OC(OC2C(O)C(CO)OC(OCCCCCNC(=O)CCCCCNC(=O)CCCCC3SCC4NC(=O)NC43)C2O)C1OC(C)=O (stereo not shown) [BIO-7]
binding of mAb 4C7 according to sensorgrams (mAb 4C7 [1]): bound | Kd (mAb 4C7 [1]): 120 nM

COC1C(O)C(C)OC(OC2C(O)C(CO)OC(OCCCCCN)C2O)C1OC(C)=O (stereo not shown) [disaccharide 6]
normalized STD effect, O-acetyl group (mAb 4C7 [2]): 97% | normalized STD effect, glucose proton H3 (mAb 4C7 [2]): ~60% | normalized STD effect, talose H1 (mAb 4C7 [2]): 96% | normalized STD effect, talose H4 (mAb 4C7 [2]): 88% | normalized STD effect, talose proton at position 2 (mAb 4C7 [2]): 100% | normalized STD intensities, glucose protons at positions 4, 5, and 6 (mAb 4C7 [2]): < 50% | reactivity with mAb 3D11 (ELISA) (mAb 3D11): reacted strongly | reactivity with mAb 9C1-2 (ELISA) (mAb 9C1-2): reacted strongly | reactivity with mAb 4C7 (ELISA) (mAb 4C7 [3]): reacted strongly; also recorded: highest recognition

COC1C(OC(C)=O)C(C)OC(OC2C(O)C(CO)OC(OCCCCCN)C2O)C1OC(C)=O (stereo not shown) [disaccharide 7]
reactivity with mAb Pp-PS-W (ELISA) (mAb Pp-PS-W): reacted strongly | STD-NMR effects with mAb 4C7 (mAb 4C7 [2]): some STD enhancements were observed; also recorded: Low and not quantifiable STD effects | STD-NMR signals with mAb 4C7 (mAb 4C7 [2]): did not show any signals | reactivity of human immune serum samples with the coated antigen [4]: crossreact
